Data set [1] is described as follows: Solubility in commonly used solvents and PBS. Format: physicochemical. How it is done: We established that the solubility of Compound 1a in most commonly used solvents is very low (Table 2) which represents an issue for biological evaluation. Therefore a hydrochloric salt of Compound 1a was synthesised and the solubility was analyzed. The obtained salt had improved solubility in water and methanol (Table 2), however it was not soluble (<0.1 g/100 ml) in Phosphate Buffered Saline (PBS). PBS is a water-based salt solution containing sodium chloride, sodium phosphate, potassium chloride and potassium phosphate, while the buffer's phosphate groups help to maintain a constant pH. PBS is non-toxic and is commonly used as an isotonic buffered solution for cell-based assays and animal studies.

For the next data set, the system named is MCF-10A cells. The data set is described as follows: Cell Titre Blue viability assay, MCF-10A. Format: cell-based, human. To be noted: Homo sapiens, 24 hrs, extrapolated with GraphPad, read-out: IC50 cell viability, extrapolated from the dose-response curve.
Data set [2] in a line: Cell Titre Blue viability assay, MCF-10A. Format: cell-based, human. To be noted: human, MCF-10A cells, 1 mM, read-out: cell viability compared to DMSO control (100%).
Protocol: (§1) The viability of cells at experimental endpoints for particular assays was determined using the Cell Titre Blue reagent (Promega, Southampton, UK). This reagent measures the cellular metabolic activity using resazurin as an indicator dye. Viable cells, therefore metabolically active, will reduce resazurin into highly fluorescent resofurin. The resulting fluorescence levels are measured and indicate cell viability.
(§2) Cells were plated at low confluency into 96 well plates in 100 μl of complete growth media in triplicates and were incubated at 37° C. in 5% CO2 for the desired test exposure period. For each 100 μl of media in 96 well plates, 20 μl Cell Titre Blue reagent was added followed by incubation for an hour at 37° C. in 5% CO2. Fluorescence was then measured by setting excitation/emission wavelengths to 560/590 nm on a Flurostar Optima plate reader (BMG tabtech, Bucks, UK).
(§3) To compare the toxicity in tumorigenic as well as in non-tumorigenic breast cancer cells, we selected MCF-10A as a non-tumorigenic human breast cancer cell line and MDA-MB-231 and SKBR3 as cell models of tumorigenic human breast cancer cell line.
(§4) Cell toxicity was evaluated using the Cell Titre Blue viability assay over a range of molarities for 24 hrs.

Like-named read-outs stand apart in the source and are kept apart here.

Protocol for MCF-10A cells: as §1, §2, §3, §4

The IC50 is the concentration needed to halve the response being measured. By viability is commonly meant a per cent measure of how many cells are alive, often set against a control. In the case of `O=C(Nc1ccccc1C(=O)NCCN1CCOCC1)c1ccccc1F` [Compound 1a, 2-[(2-fluorobenzoyl)amino]-N-(2-morpholin-4-ylethyl)benzamide], the Solubility in data set [1] (DMSO) is 3.71 g/100 ml; in data set [1] (Dichloromethane), 2.91 g/100 ml; in data set [1] (Diethyl ether), 0.09 g/100 ml; in data set [1] (Ethanol) it was 0.09 g/100 ml; in data set [1] (Ethyl acetate) it was 0.34 g/100 ml; in data set [1] (Methanol), 0.20 g/100 ml. Moreover, the Solubility in data set [1] (water, read-out: Solubility) is less than 100 µg/mL. The IC50 in the data set on MCF-10A cells was 14.9 mM. The viability at 24 h, 1000 µM in data set [2] was determined as 96%.

Source of the values: patent publication US20220017478A1, “2-BENZOYLAMINOBENZAMIDE DERIVATIVES AS BCL-3 INHIBITORS” (University College Cardiff Consultants Limited, priority 2013, published 2022).
